Laboratory results as given in PMC3324464, “The GPI Anchor Signal Sequence Dictates the Folding and Functionality of the Als5 Adhesin from Candida albicans” (PLoS ONE, 2012).
Read-outs that look alike come from different tables or passages of the source. Ends that are not written are not given here.

Experiments:
GST-Als5-SS [1] = biological target: T1, GST-Als5-SS (Candida albicans, UniProt Q5A8T7); assay: biochemical; format: binding
T1 construct: made in house; host or cells: E. coli BL21(DE3)
T1 sequence (Q5A8T7 whole entry): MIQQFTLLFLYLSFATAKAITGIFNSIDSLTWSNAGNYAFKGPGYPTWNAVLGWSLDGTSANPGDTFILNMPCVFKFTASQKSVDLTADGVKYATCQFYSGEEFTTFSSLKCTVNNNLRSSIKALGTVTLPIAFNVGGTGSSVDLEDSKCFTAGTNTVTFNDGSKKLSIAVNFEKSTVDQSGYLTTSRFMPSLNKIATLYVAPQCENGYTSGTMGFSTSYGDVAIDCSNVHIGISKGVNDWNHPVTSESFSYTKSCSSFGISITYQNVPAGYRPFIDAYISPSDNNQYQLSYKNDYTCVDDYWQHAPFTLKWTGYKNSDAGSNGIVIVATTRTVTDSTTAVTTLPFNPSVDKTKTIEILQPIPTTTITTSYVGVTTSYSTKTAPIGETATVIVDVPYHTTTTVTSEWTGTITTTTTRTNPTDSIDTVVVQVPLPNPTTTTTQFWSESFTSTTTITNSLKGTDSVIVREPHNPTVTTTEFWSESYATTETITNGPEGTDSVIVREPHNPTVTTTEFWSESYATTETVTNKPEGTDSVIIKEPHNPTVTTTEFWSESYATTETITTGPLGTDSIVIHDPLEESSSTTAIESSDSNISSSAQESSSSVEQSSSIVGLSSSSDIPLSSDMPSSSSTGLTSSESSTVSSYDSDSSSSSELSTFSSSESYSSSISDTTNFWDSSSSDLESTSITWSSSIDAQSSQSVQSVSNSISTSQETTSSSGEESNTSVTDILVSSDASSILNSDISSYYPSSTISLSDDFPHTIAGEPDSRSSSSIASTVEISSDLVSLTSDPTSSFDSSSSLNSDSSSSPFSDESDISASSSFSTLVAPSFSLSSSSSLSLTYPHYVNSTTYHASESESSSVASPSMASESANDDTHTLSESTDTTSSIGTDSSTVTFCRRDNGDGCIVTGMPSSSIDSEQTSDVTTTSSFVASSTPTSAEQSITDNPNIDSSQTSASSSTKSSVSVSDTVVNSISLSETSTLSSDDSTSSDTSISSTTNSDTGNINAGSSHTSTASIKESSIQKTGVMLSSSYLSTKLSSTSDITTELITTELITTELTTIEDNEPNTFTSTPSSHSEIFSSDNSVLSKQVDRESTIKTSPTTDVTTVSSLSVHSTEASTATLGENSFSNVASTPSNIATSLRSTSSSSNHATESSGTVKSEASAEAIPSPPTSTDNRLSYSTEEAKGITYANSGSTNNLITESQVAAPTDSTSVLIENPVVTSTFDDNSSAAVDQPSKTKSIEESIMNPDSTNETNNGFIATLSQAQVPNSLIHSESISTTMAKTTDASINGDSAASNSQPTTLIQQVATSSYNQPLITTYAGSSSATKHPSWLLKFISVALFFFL
Experimental: (§1) Binding of GST-Als5 and GST-Als5-SS proteins to different peptides was monitored by fluorescence emission spectroscopy. Freshly purified samples of protein were used each time. 0.02 mg/ml of the proteins were taken and the tryptophan-specific emission spectra were monitored between 310 nm to 400 nm by excitation at 295 nm. The peptides were titrated into the protein solutions, incubated for 5 minutes after each addition, and emission spectra recorded. Both excitation and emission bandwidths were fixed at 5 nm and all spectra were averages of 5 scans. All spectra were corrected for buffer and peptide backgrounds.
(§2) All binding data were analyzed using a one-site saturation model. Binding studies were done at different temperatures, and ΔG^o for the protein-peptide interactions calculated using the equation: ΔG^o = –RTlnKa. ΔH^o and ΔS^o were obtained from the slope and intercept of the van’t Hoff plots according to the equation: [drawing 1]
The change in fluorescence emission intensity upon titration with the peptide ligands was monitored (see Figures S8A, S8C, S8E, S8G and Figures S9A, S9C, S9E, S9G, respectively) and the binding plots obtained (Figures S8B, S8D, S8F, S8H and Figures S9B, S9D, S9F, S9H, respectively) were used to calculate dissociation constants (Kd) for the interaction (Table 1). […]

GST-Als5 [2] = biological target: T2, GST-Als5 (Candida albicans, UniProt Q5A8T7); assay: biochemical; format: binding; details: for Kd: 0.02 mg/ml protein, excitation 295 nm, one-site saturation model
T2 construct: made in house; host or cells: E. coli BL21(DE3)
T2 sequence (Q5A8T7 1-1327): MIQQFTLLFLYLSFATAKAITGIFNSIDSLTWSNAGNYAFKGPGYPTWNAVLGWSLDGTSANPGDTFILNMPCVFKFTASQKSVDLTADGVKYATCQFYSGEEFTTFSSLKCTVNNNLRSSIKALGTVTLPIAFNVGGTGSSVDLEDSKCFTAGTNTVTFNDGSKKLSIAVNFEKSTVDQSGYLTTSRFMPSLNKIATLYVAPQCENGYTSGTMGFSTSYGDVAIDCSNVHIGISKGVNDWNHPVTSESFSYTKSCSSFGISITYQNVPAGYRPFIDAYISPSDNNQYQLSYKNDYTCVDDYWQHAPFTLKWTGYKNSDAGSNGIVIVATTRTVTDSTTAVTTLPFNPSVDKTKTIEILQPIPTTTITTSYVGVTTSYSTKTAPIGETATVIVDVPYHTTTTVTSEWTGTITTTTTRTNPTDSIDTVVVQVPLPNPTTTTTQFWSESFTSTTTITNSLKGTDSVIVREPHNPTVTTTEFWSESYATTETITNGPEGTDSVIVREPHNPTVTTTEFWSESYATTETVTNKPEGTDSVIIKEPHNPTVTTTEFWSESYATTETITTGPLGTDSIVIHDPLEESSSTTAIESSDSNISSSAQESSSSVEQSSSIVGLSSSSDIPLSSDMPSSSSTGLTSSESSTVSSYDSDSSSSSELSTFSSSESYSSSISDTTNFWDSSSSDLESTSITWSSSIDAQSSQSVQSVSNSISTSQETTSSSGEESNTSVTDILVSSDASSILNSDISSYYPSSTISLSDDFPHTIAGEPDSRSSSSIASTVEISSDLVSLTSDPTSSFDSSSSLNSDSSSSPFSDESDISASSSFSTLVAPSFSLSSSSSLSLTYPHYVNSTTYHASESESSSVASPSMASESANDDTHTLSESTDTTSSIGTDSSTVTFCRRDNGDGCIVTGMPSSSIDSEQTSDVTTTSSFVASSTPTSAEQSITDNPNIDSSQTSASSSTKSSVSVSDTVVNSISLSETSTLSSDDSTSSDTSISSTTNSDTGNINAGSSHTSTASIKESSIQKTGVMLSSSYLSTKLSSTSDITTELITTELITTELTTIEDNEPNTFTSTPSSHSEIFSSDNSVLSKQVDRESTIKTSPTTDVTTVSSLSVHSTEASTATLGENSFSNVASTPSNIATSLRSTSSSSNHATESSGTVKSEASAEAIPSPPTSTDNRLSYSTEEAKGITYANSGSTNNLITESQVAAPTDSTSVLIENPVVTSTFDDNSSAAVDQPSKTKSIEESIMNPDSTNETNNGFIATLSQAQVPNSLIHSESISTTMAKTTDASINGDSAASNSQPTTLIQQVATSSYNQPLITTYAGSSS
Experimental: as §1, §2
The change in fluorescence emission intensity upon titration with the peptide ligands was monitored (see Figures S8A, S8C, S8E, S8G and Figures S9A, S9C, S9E, S9G, respectively) and the binding plots obtained (Figures S8B, S8D, S8F, S8H and Figures S9B, S9D, S9F, S9H, respectively) were used to calculate dissociation constants (Kd) for the interaction (Table 1).
Supplementary file pone.0035305.s008.tif: Figure S8 Binding of GST-Als5 with different peptides. A, C, E and G show representative fluorescence spectra obtained upon binding of GST-Als5 with the peptide EHAHTPR at 15 °C, 27 °C, 37 °C and 47 °C, respectively. B, D, F and H represent the binding plots of GST-Als5 with different peptides at 15 °C, 27 °C, 37 °C and 47 °C, respectively. Each data point gives the average of three independent measurements done in duplicates and the error bars denote standard deviations. Spectra 1–7 represent binding of peptides with GST-Als5 in the following order of increasing concentrations of the peptides: 1: no peptide; 2: 0.037 µM; 3: 0.074 µM; 4: 0.443 µM; 5: 0.804 µM; 6: 1.154 µM; 7: 1.5 µM. (TIF) Click here for additional data file.

GST-Als5 [3] = biological target: T3, GST-Als5 (Candida albicans, UniProt Q5A8T7 20-1327); assay: other fluorescence titration; tryptophan fluorescence of 0.02 mg/ml protein, peptide titrated in; one-site saturation model; 42 °C; details: both partners purified
T3 construct: source: E. coli BL21, purified (glutathione-agarose); not shown: GST, N-terminal, kept
T3 sequence: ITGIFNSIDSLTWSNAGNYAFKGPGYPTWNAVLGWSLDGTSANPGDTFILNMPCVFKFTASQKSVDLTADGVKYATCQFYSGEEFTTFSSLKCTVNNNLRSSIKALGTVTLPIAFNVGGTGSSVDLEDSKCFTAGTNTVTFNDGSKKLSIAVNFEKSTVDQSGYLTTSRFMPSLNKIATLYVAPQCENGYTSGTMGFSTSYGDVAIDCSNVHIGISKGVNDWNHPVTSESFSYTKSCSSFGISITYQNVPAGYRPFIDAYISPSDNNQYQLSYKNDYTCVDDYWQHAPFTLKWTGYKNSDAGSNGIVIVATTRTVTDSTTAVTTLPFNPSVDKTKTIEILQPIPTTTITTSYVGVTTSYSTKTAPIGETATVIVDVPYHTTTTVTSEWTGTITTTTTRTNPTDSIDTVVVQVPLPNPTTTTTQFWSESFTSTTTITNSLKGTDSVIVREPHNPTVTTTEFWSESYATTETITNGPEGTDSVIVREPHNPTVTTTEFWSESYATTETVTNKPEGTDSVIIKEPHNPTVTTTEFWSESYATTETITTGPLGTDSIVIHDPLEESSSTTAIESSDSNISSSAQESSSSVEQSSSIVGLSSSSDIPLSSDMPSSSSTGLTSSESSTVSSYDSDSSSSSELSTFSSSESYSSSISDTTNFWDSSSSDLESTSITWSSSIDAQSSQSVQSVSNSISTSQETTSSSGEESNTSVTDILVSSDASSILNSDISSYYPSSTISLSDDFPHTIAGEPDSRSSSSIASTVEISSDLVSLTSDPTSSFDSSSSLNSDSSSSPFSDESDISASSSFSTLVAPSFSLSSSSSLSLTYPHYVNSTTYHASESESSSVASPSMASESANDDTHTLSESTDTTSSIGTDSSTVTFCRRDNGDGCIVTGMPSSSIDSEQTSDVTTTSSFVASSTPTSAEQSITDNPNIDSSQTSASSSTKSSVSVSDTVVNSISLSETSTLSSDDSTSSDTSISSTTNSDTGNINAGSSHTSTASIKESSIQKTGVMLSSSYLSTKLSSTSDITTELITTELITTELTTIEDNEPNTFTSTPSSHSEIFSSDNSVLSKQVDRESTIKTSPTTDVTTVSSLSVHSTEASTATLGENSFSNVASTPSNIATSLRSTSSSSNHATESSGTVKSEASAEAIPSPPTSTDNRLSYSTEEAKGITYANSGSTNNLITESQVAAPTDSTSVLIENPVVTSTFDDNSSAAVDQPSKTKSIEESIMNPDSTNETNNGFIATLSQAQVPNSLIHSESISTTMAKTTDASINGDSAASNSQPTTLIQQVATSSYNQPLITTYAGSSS

GST-Als5-SS [4] = biological target: T4, GST-Als5-SS (Candida albicans, UniProt Q5A8T7 20-1326, N-terminal GST tag (pGEX-6P-2) not cleaved, omitted here; expressed in E. coli, unglycosylated. The 4044 bp insert implies the full ORF, including the N-terminal secretion signal, although the figure); assay: other fluorescence titration; tryptophan fluorescence of 0.02 mg/ml protein, peptide titrated in; one-site saturation model; 52 °C (secondary structure of both proteins mildly perturbed at this temperature); details: both partners purified
GST-Als5 [5] = biological target: T3, GST-Als5; assay: as above; details: both partners purified
GST-Als5-SS [6] = biological target: T4, GST-Als5-SS; assay: other fluorescence titration; van't Hoff plots of the association constants from the fluorescence titrations at different temperatures; ΔH° from the slope; details: both partners purified
GST-Als5 [7] = biological target: T3, GST-Als5; assay: as above; details: both partners purified
[8] = 15 °C, N.B. = no binding observed, 0.02 mg/ml protein, excitation 295 nm, emission 310-400 nm, one-site saturation model, average of three independent measurements in duplicates
[9] = Kd, 27 °C, N.B. = no binding observed, 0.02 mg/ml protein, excitation 295 nm, one-site saturation model, average of three independent measurements in duplicates
[10] = Kd, 37 °C, 0.02 mg/ml protein, excitation 295 nm, one-site saturation model, average of three independent measurements in duplicates
[11] = Kd, 47 °C, N.B. = no binding observed, 0.02 mg/ml protein, excitation 295 nm, one-site saturation model, average of three independent measurements in duplicates
[12] = 15 °C, N.B. = no binding observed, emission 310-400 nm, average of three independent measurements in duplicates
[13] = 27 °C, N.B. = no binding observed, average of three independent measurements in duplicates
[14] = Kd, 37 °C, average of three independent measurements in duplicates
[15] = Kd, 47 °C, N.B. = no binding observed, average of three independent measurements in duplicates

In the case of KLRIPSV [KLRIPSV], the Kd (GST-Als5-SS [1]; [8]) is reported as “N.B”, the Kd (GST-Als5-SS [1]; [9]) is reported as 53 ± 6 nM and the Kd (GST-Als5-SS [1]; [10]) is reported as 17 ± 5 nM. For the same molecule, the Kd (GST-Als5-SS [1]; [11]) was 14 ± 2 nM, the Kd (GST-Als5 [2]; [12]) was “N.B” and the Kd (GST-Als5 [2]; [13]) was “N.B”. The Kd (GST-Als5 [2]; [14]) was 34 ± 12 nM, the Kd (GST-Als5 [2]; [15]) was 7 ± 3 nM and the Kd (GST-Als5 [2]; Kd, 52 °C (secondary structure of protein mildly perturbed)) was 7 ± 2 nM.

In the case of AYKSLMT [AYKSLMT], the Kd (GST-Als5-SS [1]; [8]) is reported as “N.B”, the Kd (GST-Als5-SS [1]; [9]) is reported as 77 ± 2 nM and the Kd (GST-Als5-SS [1]; [10]) is reported as 6 ± 0.2 nM. The Kd (GST-Als5-SS [1]; [11]) was 9 ± 2 nM, the Kd (GST-Als5 [2]; [12]) was “N.B” and the Kd (GST-Als5 [2]; [13]) was “N.B”. It also gave a Kd (GST-Als5 [2]; [14]) of 13 ± 7 nM, a Kd (GST-Als5 [2]; Kd, 42 °C) of 9 ± 4 nM and a Kd (GST-Als5 [2]; [15]) of 13 ± 6 nM.

VSPIRLK [scrambled peptide] was tested, and the “binding (in words)” value (GST-Als5-SS [1]; 27 °C and 47 °C) was “showed no affinity for either of the protein variants”, the Kd (GST-Als5-SS [1]; 27 °C, N.B. = no binding observed, 0.02 mg/ml protein, excitation 295 nm, one-site saturation model, average of three independent measurements in duplicates) was “N.B” and the Kd (GST-Als5-SS [1]; 47 °C, N.B. = no binding observed, 0.02 mg/ml protein, excitation 295 nm, one-site saturation model, average of three independent measurements in duplicates) was “N.B”. The “binding (in words)” value (GST-Als5 [2]; 27 °C and 47 °C) was “showed no affinity for either of the protein variants”, the Kd (GST-Als5 [2]; [13]) was “N.B” and the Kd (GST-Als5 [2]; 47 °C, N.B. = no binding observed, average of three independent measurements in duplicates) was “N.B”.

For EHAHTPR [EHAHTPR], the Kd (GST-Als5-SS [1]) was 65 ± 13 nM, the Kd (GST-Als5-SS [1]; [9]) was 82 ± 16 nM and the Kd (GST-Als5-SS [1]; [10]) was 44 ± 4 nM. The Kd (GST-Als5-SS [1]; [11]) was 25 ± 9 nM, the Kd (GST-Als5 [2]; [12]) was “N.B” and the Kd (GST-Als5 [2]; [13]) was “N.B”. It also gave a Kd (GST-Als5 [2]; [14]) of 160 ± 38 nM, a Kd (GST-Als5 [2]; Kd, 42 °C) of 34 ± 8 nM and a Kd (GST-Als5 [2]; [15]) of 34 ± 11 nM.

In the case of KLRIPSV (source: synthetic peptide (USV Ltd.)), the Kd (GST-Als5 [3]) is reported as 4 nM, the Kd (GST-Als5-SS [4]) is reported as 5 nM and the Kd (GST-Als5 [5]) is reported as 7 nM. The dH (GST-Als5-SS [6]) was 15.3 kcal/mol and the dH (GST-Als5 [7]) was 22.5 kcal/mol.

For EHAHTPR (source: synthetic peptide (USV Ltd.)), the Kd (GST-Als5 [3]) was 34 nM, the Kd (GST-Als5-SS [4]) was 8 nM and the Kd (GST-Als5 [5]) was 11 nM. The dH (GST-Als5-SS [6]) was 8.15 kcal/mol and the dH (GST-Als5 [7]) was 33.4 kcal/mol.
